Series [1] can be described thus: BET specific surface area analysis. The format is physicochemical. As to conditions: for Specific Surface Area (SSA), m^2/g; BET value on average: nitrogen adsorption at 77 K; for Specific Surface Area (SSA), m^2/g: further BET measurement accompanying the particle size analysis (Table 23); for specific surface area: isolated API. As to the method: BET specific surface area analysis was conducted on various batches of precipitated amorphous Letermovir. The same was done on a batch of Letermovir (named BXR3GBL) produced according to Example 11 of WO 2006/133822. The results of the analysis are shown below in Table 22: The particular BET method is characterized by the following parameter: Principle: Nitrogen adsorption at 77 K; method according to Brunauer, Emmett and Teller Method: volumetric method (method II) according to USP <846> Instrument: Tristar 3000/VacPrep 061 (Micromeritics) Sample mass: approximately 1.5-2.5 g Sample preparation: degassing for 2 h at 40° C. under vacuum (final vacuum <2.7 Pa) Pressure range p/p0: 0.05-0.15 (3 data points).

Series [2] can be described thus: Laser diffraction particle size distribution analysis (Mastersizer 2000). The series is classed as physicochemical. As to conditions: Mastersizer 2000, dry dispersion, average of four analyses. Here is the method:
Laser diffraction particle size distribution analysis was conducted on two batches of precipitated amorphous Letermovir of the invention and on a batch of amorphous Letermovir (referred to as BXR3GBL) produced according to Example 11 of WO 2006/133822 while using laser diffraction technique of the Mastersizer 2000 (Malvern Instruments). The results of the analysis are presented in FIG. 9(a-c) in the form of three particle size distribution charts and the numeric part of the results is shown below in Table 23: The particular PSD analysis method is characterized by the following parameter: Device: Mastersizer 2000 with dry dispersion Modus: Fraunhofer; weight-in quantity: 0.3-0.4 g Measurement time: 20 seconds Background time: 6 seconds Obscuration limits: 0.5 to 6% Sample tray: micro volume; small sieve with balls Feed rate: 45-55% Dispersive pressure: 2.5 bar Four independent analyses were performed and the results were averaged.

This note sets out measurements from patent US10442773B2, “Amorphous letermovir and solid pharmaceutical formulations thereof for oral administration” (AICURIS ANTI-INFECTIVE CURES GMBH, priority 2013, dated 2019).

Where “and” joins values, the source holds several entries; their conditions need not be identical. Equal entries are not always repeated.

Regarding `COc1cccc(N2CCN(C3=Nc4c(F)cccc4[C@H](CC(=O)O)N3c3cc(C(F)(F)F)ccc3OC)CC2)c1` [Batch 40479202], the “Specific Surface Area (SSA), m^2/g; BET value on average” value (shortened to “Specific Surface Area … on average”) in series [1] is 1.69 m^2/g.

For `COc1cccc(N2CCN(C3=Nc4c(F)cccc4[C@H](CC(=O)O)N3c3cc(C(F)(F)F)ccc3OC)CC2)c1` [Batch 40483517], the “Specific Surface Area … on average” value in series [1] is 1.87 m^2/g and 1.83 m^2/g. Turning to `COc1cccc(N2CCN(C3=Nc4c(F)cccc4[C@H](CC(=O)O)N3c3cc(C(F)(F)F)ccc3OC)CC2)c1` [Batch BXR3GBL, reference compound], in series [1], the “Specific Surface Area (SSA), m^2/g” value came out at 1.55 m^2/g and the “Specific Surface Area … on average” value is recorded as 0.64 m^2/g. The “Particle Size Median Value d(0.5), μm” value in series [2] was 21.607 μm. For the molecule `COc1cccc(N2CCN(C3=Nc4c(F)cccc4[C@H](CC(=O)O)N3c3cc(C(F)(F)F)ccc3OC)CC2)c1` [roller dried Letermovir], the specific surface area in series [1] is less than 1 m^2/g. For `COc1cccc(N2CCN(C3=Nc4c(F)cccc4[C@H](CC(=O)O)N3c3cc(C(F)(F)F)ccc3OC)CC2)c1` [Batch 40475297], the “Specific Surface Area … on average” value in series [1] was 1.25 m^2/g. Take `COc1cccc(N2CCN(C3=Nc4c(F)cccc4[C@H](CC(=O)O)N3c3cc(C(F)(F)F)ccc3OC)CC2)c1` [Batch 1300750]: the “Specific Surface Area (SSA), m^2/g” value in series [1] is recorded as 2.1 m^2/g. In addition, in series [2], the “Particle Size Median Value d(0.5), μm” value stood at 9.383 μm. `COc1cccc(N2CCN(C3=Nc4c(F)cccc4[C@H](CC(=O)O)N3c3cc(C(F)(F)F)ccc3OC)CC2)c1` [Batch 40479198]: in series [1], the “Specific Surface Area … on average” value worked out at 2.09 m^2/g. As for `COc1cccc(N2CCN(C3=Nc4c(F)cccc4[C@H](CC(=O)O)N3c3cc(C(F)(F)F)ccc3OC)CC2)c1` [Batch 40479200], the “Specific Surface Area … on average” value in series [1] turned out to be 1.30 m^2/g. `COc1cccc(N2CCN(C3=Nc4c(F)cccc4[C@H](CC(=O)O)N3c3cc(C(F)(F)F)ccc3OC)CC2)c1` [Batch 40479463]: the “Specific Surface Area … on average” value in series [1] is 1.45 m^2/g. Consider `COc1cccc(N2CCN(C3=Nc4c(F)cccc4[C@H](CC(=O)O)N3c3cc(C(F)(F)F)ccc3OC)CC2)c1` [Batch 40479326], for which the “Specific Surface Area … on average” value in series [1] is listed as 1.76 m^2/g. For the molecule `COc1cccc(N2CCN(C3=Nc4c(F)cccc4[C@H](CC(=O)O)N3c3cc(C(F)(F)F)ccc3OC)CC2)c1` [Batch 40479201], the “Specific Surface Area … on average” value in series [1] was determined as 1.97 m^2/g. On to `COc1cccc(N2CCN(C3=Nc4c(F)cccc4[C@H](CC(=O)O)N3c3cc(C(F)(F)F)ccc3OC)CC2)c1` [Batch 1300735], for which the “Specific Surface Area (SSA), m^2/g” value in series [1] is reported as 2.18 m^2/g. For the same molecule, the “Particle Size Median Value d(0.5), μm” value in series [2] is on record as 8.880 μm.

With `COc1cccc(N2CCN(C3=Nc4c(F)cccc4[C@H](CC(=O)O)N3c3cc(C(F)(F)F)ccc3OC)CC2)c1` [Batch 40479189], in series [1], the “Specific Surface Area … on average” value was 1.26 m^2/g. As for `COc1cccc(N2CCN(C3=Nc4c(F)cccc4[C@H](CC(=O)O)N3c3cc(C(F)(F)F)ccc3OC)CC2)c1` [Batch 40474375], the “Specific Surface Area … on average” value in series [1] was found to be 1.46 m^2/g. The same measure, in the same setting: the same measure for `COc1cccc(N2CCN(C3=Nc4c(F)cccc4[C@H](CC(=O)O)N3c3cc(C(F)(F)F)ccc3OC)CC2)c1` [Batch 40479434]: 1.48 m^2/g; for `COc1cccc(N2CCN(C3=Nc4c(F)cccc4[C@H](CC(=O)O)N3c3cc(C(F)(F)F)ccc3OC)CC2)c1` [Batch 40479248]: 1.45 m^2/g.

`COc1cccc(N2CCN(C3=Nc4c(F)cccc4[C@H](CC(=O)O)N3c3cc(C(F)(F)F)ccc3OC)CC2)c1` [precipitated Letermovir, (S)-{8-fluoro-2-[4-(3-methoxyphenyl)piperazin-1-yl]-3-(2-methoxy-5-trifluormethylphenyl)-3,4-dihydroquinazolin-4-yl}acetic acid]: the specific surface area in series [1] is given as 1.2-2 m^2/g. Take `COc1cccc(N2CCN(C3=Nc4c(F)cccc4[C@H](CC(=O)O)N3c3cc(C(F)(F)F)ccc3OC)CC2)c1` [Batch 40483516]: the “Specific Surface Area … on average” value in series [1] is 1.28 m^2/g. The same measure, in the same setting: to `COc1cccc(N2CCN(C3=Nc4c(F)cccc4[C@H](CC(=O)O)N3c3cc(C(F)(F)F)ccc3OC)CC2)c1` [Batch 40483515] belongs 1.03 m^2/g; to `COc1cccc(N2CCN(C3=Nc4c(F)cccc4[C@H](CC(=O)O)N3c3cc(C(F)(F)F)ccc3OC)CC2)c1` [Batch 40474463], 1.23 m^2/g.
